pIC50, pKd: −log10 of the molar value.
Legend:
[1] = target: PDGFRα D842V (Homo sapiens (Human), UniProt P16234, D842V); assay: PDGFRα D842V biochemical enzymatic activity assay (EZReader 2 mobility shift); conditions: at APPKM for ATP, 25 μM ATP, 90 minutes
Text: (§1) PDGFRα and KIT enzymatic activity was monitored using the Perkin Elmer electrophoretic mobility shift technology platform, the EZReader 2.
(§2) Within the linear, steady-state phase of the kinase enzymatic reaction, the mixed pool of phosphorylated (product) and non-phosphorylated (substrate) peptides was passed through the microfluidic system of the PerkinElmer EZ Reader 2, under an applied electric potential difference. The presence of the phosphate group on the product peptide provided a difference in mass and charge between that of the substrate peptide, resulting in a separation of the substrate and product pools in the sample (Perrin et al., Expert Opin Drug Discovery 2010 Jan. 5(1):51-63).
(§3) As the product and substrate peptide mixture passes the lasers within the instrument, these pools are detected (λex=488 nm, λem=568 nm) and resolved as separate peaks. The ratio between these peaks reflects the activity of the compound at that concentration, in that well, under those conditions.
Inhibition of KIT (D816V) PDGFRα (D842V) Mutant Biochemical Enzymatic Activity
(§4) All test articles were dissolved in 100% DMSO at a stock concentration of 10 mM. A 100×, 10-point, 4-fold serial dilution of all test compounds was created in 100% DMSO, starting at a relevant concentration, usually 1 mM. A volume of 0.130 μL of each concentration was transferred to the relevant well of a 384-well assay plate (Greiner 781 201) using a TTPLabtech Mosquito nano-liter dispenser. Using the Multidrop, the remaining constituents of the reaction were then added to the 0.130 μL of compound as follows:
The reaction was stopped by the addition of 70 μl of Stop buffer (100 mM HEPES pH 7.5, 0.015% Brij 35, 35 mM EDTA and 0.2% of Coating Reagent 3, Caliper Lifesciences). The plate was read on a Caliper EZReader 2.

[2] = target: KIT D816V (Homo sapiens (Human), UniProt P10721, D816V); assay: KIT D816V biochemical enzymatic activity assay (EZReader 2 mobility shift); conditions: at APPKM for ATP, 20 μM ATP, 60 minutes
Text: as §1, §2, §3, §4
The plate was read on a Caliper EZReader 2.

[3] = target: wt KIT kinase (Homo sapiens (Human), UniProt P10721); assay: Wild-type KIT binding assay (Kd determination, phage-tagged kinase, qPCR)
Description: Kd Determinations. For most assays, including wt KIT kinase, kinase-tagged T7 phage strains were prepared in an E. coli host derived from the BL21 strain. E. coli were grown to log-phase and infected with T7 phage and incubated with shaking at 32° C. until lysis. […] The liganded beads were blocked with excess biotin and washed with blocking buffer (SeaBlock (Pierce), 1% BSA, 0.05% Tween 20, 1 mM DTT) to remove unbound ligand and to reduce non-specific binding. […] Test compounds were prepared as 111× stocks in 100% DMSO. Kds were determined using an 11-point 3-fold compound dilution series with three DMSO control points. […] The compounds were then diluted directly into the assays such that the final concentration of DMSO was 0.9%. All reactions were performed in polypropylene 384-well plate. Each was a final volume of 0.02 ml. […] The kinase concentration in the eluates was measured by qPCR.
Binding Constants (Kds). Binding constants (Kds) were calculated with a standard dose-response curve using the Hill equation: Response=Background+Signal−Background 1+(KdHill Slope/DoseHill Slope). The Hill Slope was set to −1. Curves were fitted using a non-linear least square fit with the Levenberg-Marquardt algorithm.

[4] = target: KIT D816V (Homo sapiens (Human), UniProt P10721, D816V/V560G); assay: HMC1.2 autophosphorylation assay (phospho-Y719 KIT AlphaLISA); assay type: cell-based; conditions: HMC1.2 cell line, KIT autophosphorylation at tyrosine 719, 90 minutes; read-out: KIT (P-KIT HMC1.2 (nM))
Description: 10,000 HMC1.2 cells were incubated in 22 μL culture media (phenol-red free IMDM, no serum) in each well of a 384-well plate and serum starved overnight in a tissue culture incubator (5% CO2, 37° C.). […] 10 μL of 100 μg/mL streptavidin donor beads (Perkin Elmer) were added to each well, blocked from light with solid black adhesive and shaken at 300 rpm at room temperature for 2 hours. Fluorescence signal was obtained on Envision (Perkin Elmer) by AlphaScreen 384 well HTS protocol.

[5] = tested on: UT-7 cells; assay: UT-7 cell proliferation with SCF stimulation as a measure of wild-type KIT activity (CellTiter-Glo); assay type: cell-based, human; conditions: SCF-stimulated UT-7 cell proliferation
Text: UT-7 Cell Proliferation with SCF Stimulation Assay as a Measure of Wild-Type KIT Activity
UT-7 cells are human megakaryoblastic leukemia cell lines that can be grown in culture with dependence on granulocyte macrophage colony stimulating factor (GM-CSF) or stem cell factor (SCF). UT-7 cells respond to SCF stimulation by activation of the KIT receptor tyrosine kinase and subsequent downstream signaling that can support cell growth and proliferation (Kuriu et al, 1999; Komatsu et al, 1991; Sasaki et al, 1995). Test compounds were assayed for their ability to inhibit SCF-stimulated proliferation of UT-7 cells.
Inhibition of SCF-stimulated UT-7 cell proliferation was assessed using the CellTiter-Glo assay that quantifies the amount of adenosine triphosphate (ATP) present, which is a readout of metabolically active cells and is directly proportional to the number of viable cells in culture. The ability of test compounds to inhibit SCF-stimulated UT-7 cell proliferation was determined using a 10-point dose curve ranging from 25 μM to 95.4 pM of test compound.
UT-7 cells were maintained in IMDM supplemented with 10% FBS, 5 ng/mL GM-CSF and 100 units/mL Penicillin-Streptomycin and grown in a 37° C. humidified tissue culture incubator. UT-7 cells were washed once with serum free, GM-CSF free IMDM. Cells were then resuspended in IMDM containing 4% FBS and 50 ng/mL SCF and seeded at 2500 cells per well in a volume of 22 μL in a 384-well microplate. A 10-point dose concentration series of test compounds (25.0 μM to 95.4 pM) were then added to the cells in a volume of 3.1 μL to each well (0.25% DMSO final concentration) and placed in a tissue culture incubator (5% CO2, 37° C.) for 72 hours. After 3-days with test compound, CellTiter-Glo reagent was prepared fresh and 25 μL of reagent was added to each well. The plate was mixed by shaking for 10 minutes at RT at 300 rpm on a plate shaker. The plate was read on an EnVision plate reader using the Ultra Sensitive Luminescence protocol for a 384-well plate.

Sequence of PDGFRα D842V (P16234 24-1089 D842V): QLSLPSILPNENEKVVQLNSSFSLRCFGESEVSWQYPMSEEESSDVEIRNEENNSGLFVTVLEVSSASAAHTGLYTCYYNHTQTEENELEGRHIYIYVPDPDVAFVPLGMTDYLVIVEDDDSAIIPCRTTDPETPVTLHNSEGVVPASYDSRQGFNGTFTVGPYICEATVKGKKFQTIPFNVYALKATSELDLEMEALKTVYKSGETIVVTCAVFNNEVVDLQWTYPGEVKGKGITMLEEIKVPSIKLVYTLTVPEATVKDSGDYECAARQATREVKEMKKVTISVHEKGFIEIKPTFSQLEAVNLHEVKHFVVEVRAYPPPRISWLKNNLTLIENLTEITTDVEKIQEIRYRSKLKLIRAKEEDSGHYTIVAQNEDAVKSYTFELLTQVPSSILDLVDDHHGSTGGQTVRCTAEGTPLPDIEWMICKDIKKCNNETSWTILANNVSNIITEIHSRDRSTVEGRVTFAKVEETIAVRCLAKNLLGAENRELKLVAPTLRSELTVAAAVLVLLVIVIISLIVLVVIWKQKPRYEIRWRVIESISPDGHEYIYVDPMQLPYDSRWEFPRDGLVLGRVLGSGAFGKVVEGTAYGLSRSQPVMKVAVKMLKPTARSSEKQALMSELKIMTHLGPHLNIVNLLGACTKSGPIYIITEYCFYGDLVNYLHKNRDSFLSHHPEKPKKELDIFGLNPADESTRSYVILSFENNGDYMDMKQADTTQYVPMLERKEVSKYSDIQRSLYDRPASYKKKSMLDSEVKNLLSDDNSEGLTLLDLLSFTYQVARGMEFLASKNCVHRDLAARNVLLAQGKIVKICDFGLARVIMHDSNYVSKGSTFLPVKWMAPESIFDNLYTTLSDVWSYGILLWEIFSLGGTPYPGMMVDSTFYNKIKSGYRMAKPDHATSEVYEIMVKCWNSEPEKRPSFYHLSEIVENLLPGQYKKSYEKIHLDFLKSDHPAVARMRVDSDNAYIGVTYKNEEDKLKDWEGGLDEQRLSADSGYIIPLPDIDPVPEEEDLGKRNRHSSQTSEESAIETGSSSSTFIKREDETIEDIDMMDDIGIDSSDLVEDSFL
Sequence of KIT D816V (Homo sapiens (Human), UniProt P10721, D816V) (P10721 26-976 D816V): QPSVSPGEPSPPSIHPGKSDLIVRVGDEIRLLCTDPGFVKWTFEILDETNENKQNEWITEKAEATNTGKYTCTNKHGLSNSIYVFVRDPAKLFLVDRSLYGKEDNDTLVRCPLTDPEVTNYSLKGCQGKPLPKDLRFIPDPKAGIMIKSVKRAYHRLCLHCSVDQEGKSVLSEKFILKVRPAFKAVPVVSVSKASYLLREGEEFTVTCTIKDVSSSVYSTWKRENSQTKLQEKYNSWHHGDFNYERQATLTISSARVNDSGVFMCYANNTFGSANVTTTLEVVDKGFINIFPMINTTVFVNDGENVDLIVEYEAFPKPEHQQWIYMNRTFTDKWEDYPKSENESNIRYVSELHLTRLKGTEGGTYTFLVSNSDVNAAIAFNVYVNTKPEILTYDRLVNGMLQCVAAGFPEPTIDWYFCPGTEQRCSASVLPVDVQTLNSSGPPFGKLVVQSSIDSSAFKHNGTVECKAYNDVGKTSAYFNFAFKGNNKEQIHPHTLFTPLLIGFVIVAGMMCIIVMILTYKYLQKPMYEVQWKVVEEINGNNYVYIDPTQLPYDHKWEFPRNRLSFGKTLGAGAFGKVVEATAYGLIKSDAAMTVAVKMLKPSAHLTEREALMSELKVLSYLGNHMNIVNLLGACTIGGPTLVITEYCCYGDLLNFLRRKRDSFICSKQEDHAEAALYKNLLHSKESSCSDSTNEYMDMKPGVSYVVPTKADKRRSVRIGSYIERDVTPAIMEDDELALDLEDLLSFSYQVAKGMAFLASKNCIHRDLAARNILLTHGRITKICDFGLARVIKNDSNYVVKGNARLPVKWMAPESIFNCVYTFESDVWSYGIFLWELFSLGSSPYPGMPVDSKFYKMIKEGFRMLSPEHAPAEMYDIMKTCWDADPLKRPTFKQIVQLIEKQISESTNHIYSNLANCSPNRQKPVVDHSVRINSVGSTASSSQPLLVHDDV
Sequence of KIT D816V (Homo sapiens (Human), UniProt P10721, D816V/V560G) (P10721 26-976 V560G/D816V): as the sequence (P10721 26-976 D816V) above, with V535G counted along it
Sequence of wt KIT kinase (P10721 26-976): as the sequence (P10721 26-976 D816V) above, with V791D counted along it

Row | pIC50 [1] | pIC50 [2] | pKd [3] | IC50 [4] [nM] | Structure (SMILES) | IC50 ([5]; Homo sapiens, UT7, 72 h) [nM] | IC50 ([5]; 72 hours) [nM]
1 | ≥ 9.52 | 9.00 to 9.51 | > 8.00 | 4.6 to 10 | C[C@](N)(c1ccc(F)cc1)c1cnc(N2CCN(c3ncnn4cc(-c5cnn([C@@H]6COC[C@@H]6O)c5)cc34)CC2)nc1 (single isomer, unassigned) [Compound 17] | 90.1 to 150 | 
2 | ≥ 9.52 | ≥ 9.52 | > 8.00 | < 4.5 | C[C@](N)(c1ccc(F)cc1)c1cnc(N2CCN(c3ncnn4cc(-c5cnn([C@H]6COC[C@@H]6O)c5)cc34)CC2)nc1 (single isomer, unassigned) [Compound 18] | 90.1 to 150 | 
3 | ≥ 9.52 | ≥ 9.52 | > 8.00 | < 4.5 | C[C@](N)(c1ccc(F)cc1)c1cnc(N2CCN(c3ncnn4cc(-c5cnn([C@H]6COC[C@H]6O)c5)cc34)CC2)nc1 (single isomer, unassigned) [Compound 20] | 90.1 to 150 | 
4 | ≥ 9.52 | ≥ 9.52 | > 8.00 | < 4.5 | C[C@](N)(c1ccc(F)cc1)c1cnc(N2CCN(c3ncnn4cc(-c5cnn([C@@H]6CC[C@H]6O)c5)cc34)CC2)nc1 (single isomer, unassigned) [Compound 22] | 90.1 to 150 | 
5 |  |  |  |  | CC(C)(O)Cn1cc(-c2cc3c(N4CCN(c5ncc([C@@](C)(N)c6ccc(F)cc6)cn5)CC4)ncnn3c2)cn1 [Compound 1, (S)-1-(4-(4-(4-(5-(1-Amino-1-(4-fluorophenyl)ethyl)pyrimidin-2-yl)piperazin-1-yl)pyrrolo[2,1-f][1,2,4]triazin-6-yl)-1H-pyrazol-1-yl)-2-methylpropan-2-ol] | 150 to 200 | 
6 |  |  |  |  | CC(C)(CO)n1cc(-c2cc3c(N4CCN(c5ncc([C@@](C)(N)c6ccc(F)cc6)cn5)CC4)ncnn3c2)cn1 [Compound 2, (S)-2-(4-(4-(4-(5-(1-amino-1-(4-fluorophenyl)ethyl)pyrimidin-2-yl)piperazin-1-yl)pyrrolo[2,1-f][1,2,4]triazin-6-yl)-1H-pyrazol-1-yl)-2-methylpropan-1-ol] | 150 to 200 | 
7 |  |  |  |  | C[C@@H](O)Cn1cc(-c2cc3c(N4CCN(c5ncc([C@@](C)(N)c6ccc(F)cc6)cn5)CC4)ncnn3c2)cn1 [Compound 3, (R)1-{4-[4-(4-{5-[(S)-1-Amino-1-(4-fluoro-phenyl)-ethyl]-pyrimidin-2-yl}-piperazin-1-yl)-pyrrolo[2,1-f][1,2,4]triazin-6-yl]-pyrazol-1-yl}-propan-2-ol] | < 90 | 
8 |  |  |  |  | C[C@H](CO)n1cc(-c2cc3c(N4CCN(c5ncc([C@@](C)(N)c6ccc(F)cc6)cn5)CC4)ncnn3c2)cn1 [Compound 5, (R)-2-(4-(4-(4-(5-((S)-1-Amino-1-(4-fluorophenyl)ethyl)pyrimidin-2-yl)piperazin-1-yl)pyrrolo[2,1-f][1,2,4]triazin-6-yl)-1H-pyrazol-1-yl)propan-1-ol] | < 90 | 
9 |  |  |  |  | C[C@@H](CO)n1cc(-c2cc3c(N4CCN(c5ncc([C@@](C)(N)c6ccc(F)cc6)cn5)CC4)ncnn3c2)cn1 [Compound 6, (S)-2-(4-(4-(4-(5-((S)-1-amino-1-(4-fluorophenyl)ethyl)pyrimidin-2-yl)piperazin-1-yl)pyrrolo[2,1-f][1,2,4]triazin-6-yl)-1H-pyrazol-1-yl)propan-1-ol] | < 90 | 
10 | ≥ 9.52 |  |  |  | C[C@](N)(c1ccc(F)cc1)c1cnc(N2CCN(c3ncnn4cc(-c5cnn(C6COC6)c5)cc34)CC2)nc1 [Compound 7, (S)-1-(4-Fluorophenyl)-1-(2-(4-(6-(1-(oxetan-3-yl)-1H-pyrazol-4-yl)pyrrolo[2,1-f][1,2,4]triazin-4-yl)piperazin-1-yl)pyrimidin-5-yl)ethan-1-amine] | 90.1 to 150 | 
11 | ≥ 9.52 |  |  |  | C[C@H](O)Cn1cc(-c2cc3c(N4CCN(c5ncc([C@@](C)(N)c6ccc(F)cc6)cn5)CC4)ncnn3c2)cn1 [Compound 9] | 90.1 to 150 | 
12 | ≥ 9.52 | ≥ 9.52 | > 8.00 | 4.6 to 10 | C[C@](N)(c1ccc(F)cc1)c1cnc(N2CCN(c3ncnn4cc(-c5cnn([C@H]6C[C@H](O)C6)c5)cc34)CC2)nc1 [Compound 11, trans-3-{4-[4-(4-{5-[1-Amino-1-(4-fluoro-phenyl)-ethyl]-pyrimidin-2-yl}-piperazin-1-yl)-pyrrolo[2,1-f][1,2,4]triazin-6-yl]-pyrazol-1-yl}-cyclobutanol] |  | 90.1 to 150
13 | ≥ 9.52 |  |  |  | C[C@](N)(c1ccc(F)cc1)c1cnc(N2CCN(c3ncnn4cc(-c5cnn(CC6(O)CC6)c5)cc34)CC2)nc1 [Compound 12, (S)-1-((4-(4-(4-(5-(1-Amino-1-(4-fluorophenyl)ethyl)pyrimidin-2-yl)piperazin-1-yl)pyrrolo[2,1-f][1,2,4]triazin-6-yl)-1H-pyrazol-1-yl)methyl)cyclopropan-1-ol] | 90.1 to 150 | 
14 | ≥ 9.52 |  |  |  | C[C@](N)(c1ccc(F)cc1)c1cnc(N2CCN(c3ncnn4cc(-c5cnn(C6(CO)CC6)c5)cc34)CC2)nc1 [Compound 13, (S)-(1-(4-(4-(4-(5-(1-Amino-1-(4-fluorophenyl)ethyl)pyrimidin-2-yl)piperazin-1-yl)pyrrolo[2,1-f][1,2,4]triazin-6-yl)-1H-pyrazol-1-yl)cyclopropyl)methanol] | 90.1 to 150 | 
